Drawing on publication PMC6268968 (Molecules, 2012), this text covers IC50 for three molecules.

A word on the IC50: it is the concentration at which inhibition is half-maximal. The low end stands for higher potency, the high end for lower potency.

T1 sequence (O42275 24-633): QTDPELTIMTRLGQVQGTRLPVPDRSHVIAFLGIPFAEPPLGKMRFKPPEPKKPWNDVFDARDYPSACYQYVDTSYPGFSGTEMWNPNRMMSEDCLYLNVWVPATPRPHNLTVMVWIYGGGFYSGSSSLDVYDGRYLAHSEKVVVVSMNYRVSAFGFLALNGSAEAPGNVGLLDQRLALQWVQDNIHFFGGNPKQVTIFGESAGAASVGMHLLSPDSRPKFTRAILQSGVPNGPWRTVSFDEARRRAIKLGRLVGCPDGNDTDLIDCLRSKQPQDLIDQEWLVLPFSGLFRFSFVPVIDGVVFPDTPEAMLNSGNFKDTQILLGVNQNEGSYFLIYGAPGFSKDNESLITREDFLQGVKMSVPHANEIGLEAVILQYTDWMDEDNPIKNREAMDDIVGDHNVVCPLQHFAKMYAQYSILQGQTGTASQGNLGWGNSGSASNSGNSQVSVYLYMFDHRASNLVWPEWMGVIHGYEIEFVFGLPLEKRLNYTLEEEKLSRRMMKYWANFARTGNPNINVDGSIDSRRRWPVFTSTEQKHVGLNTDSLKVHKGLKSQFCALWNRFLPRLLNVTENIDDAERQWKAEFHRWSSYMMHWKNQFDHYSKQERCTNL

This assay addresses T1, Acetylcholinesterase (Electrophorus electricus, UniProt O42275).
T1 construct: gene ache
The experiment in a line: Ellman spectrophotometric assay (acetylthiocholine/DTNB, […] nm). It counts as biochemical.
`O=C(/C=C/c1ccc(O)cc1)NCCc1ccc(O)cc1` [compound 1, trans-N-coumaroyltyramine] displayed an IC50 of 98.3 µM.

`O=C(/C=C/c1ccc(O)c(O)c1)NCCc1ccc(O)cc1` [compound 3, trans-N-caffeoyltyramine] yielded an IC50 of 84.3 µM.

With `COc1cc(/C=C/C(=O)NCCc2ccc(O)cc2)ccc1O` [compound 2, trans-N-feruloyltyramine], the IC50 was 86 µM.
